Data taken from patent publication USRE28819E, “Dialkylated glycol compositions and medicament preparations containing same” (Syntex (U.S.A.) Inc., priority 1975, dated 1976).
≈ marks a conversion by molar mass, not a printed value. Where a name gives a salt, the structure may show the parent alone.

Assays:
physchem = conditions: polyethylene glycol-550-dimethyl ether, organic solvent or mixture
[1] = solubility of medicament in polyethylene glycol-550-dimethyl ether at 30°C
[2] = storage stability of PGE2 formulations (percent activity, t90); assay type: physicochemical; conditions: PGE2, conclusion from Examples XV-XXIX
Procedure: A formulation is prepared having 1 mg. PGE2 per ml. 1,2-dimethoxyethane. After 12 days storage at 60°C. under a nitrogen atmosphere, the PGE2 assays 100% of the activity at time zero.
A formulation is prepared having 1 mg. PGE2 per ml. of triethylene glycol-dimethyl ether. After 5 days storage at 60°C. under a nitrogen atmosphere, the PGE2 assays 100% of the activity at time zero.
The following formulations are prepared having 1 mg. PGE2 per ml. of polyethylene glycol-550-dimethyl ether, and the additional material(s) as set forth below. The percent activity of the PGE2 after storage for 7 days at 80°C. is also given.
A formulation is prepared having 1 mg. PGE2, 0.01% edetic acid, 0.01% BHA and 0.01% BHT per ml. polyethylene glycol-550-dimethyl ether, and sealed in an ampule under nitrogen atmosphere. After 18 days storage at 80°C., the PGE2 assays 100% of the activity at time zero.
The following formulations are prepared having 1 mg. PGE2 per ml. polyethylene glycol-550 -dimethyl ether, and the additional material(s) as set forth below, and the sealed in individual ampules under nitrogen atmosphere. The time (t90) for 10% of the PGE2 to decompose when stored at 80°C. is given. Also given is the corresponding t90 for a formulation having 1 mg. PGE2 per ml. polyethylene glycol-400, also sealed under nitrogen atmosphere.
By comparison, 1 mg. […]

[3] = literature (Brummer; Karim et al); cited from earlier work
[4] = decomposition of aspirin vs. time in formulation stored at 80°C; assay type: physicochemical; conditions: conclusion from Examples XV-XXIX
Procedure: A formulation is prepared having 0.5 g. aspirin per 1.0g. polyethylene glycol- 750-dimethyl ether, and stored at 80°C. Decomposition of the aspirin is measured vs. time. The time for 10% decomposition is 27 hours. This reflects approximately a 30 month shelf-life at 25°C. This can be compared to a published report [Jun et al, J. Pharm. Sec.

[5] = polyethylene glycol-550-dimethyl ether, organic solvent or mixture

Compound | solubility (physchem) [µg/mL] | solubility [1, 5] [µg/mL] | further results
CC(=O)[C@@]12OC(C)(C)O[C@@H]1C[C@H]1[C@@H]3C[C@H](F)C4=CC(=O)C=C[C@]4(C)[C@@]3(F)[C@@H](O)C[C@@]12C [6α,9α-difluoro-11β-hydroxy-16α,17α-isopropylidenedioxy-pregna-1,4-diene-3,20-dione] | 6500 (≈ 14.9 mM) | – | –
CC1(C)O[C@@H]2C[C@H]3[C@@H]4C[C@H](F)C5=CC(=O)C=C[C@]5(C)[C@@]4(Cl)[C@@H](Cl)C[C@]3(C)[C@]2(C(=O)CCl)O1 [9α,11β,21-trichloro-6α-fluoro-16α,17α-isopropylidenedioxy-pregna-1,4-diene-3,20-dione] | 1500 (≈ 2.97 mM) | – | –
CCCCCCCCCCCCCCCC(=O)N(CCO)CCO [N,N-bis(2-hydroxyethyl)-palmitamide] | – | 2700 (≈ 7.86 mM) | –
CCCCC[C@H](O)/C=C/[C@H]1[C@H](O)CC(=O)[C@@H]1C/C=C\CCCC(=O)O [PGE2, 11α,15α-dihydroxy-9-keto-5,13-prostadienoic acid] | – | 2000 (≈ 5.67 mM) | chemical potency in the dialkylated glycol vehicle [2]: stabilizes, for extended periods of time, the chemical potency; chemical stability [3]: relatively unstable
CCCCC[C@H](O)/C=C/[C@@H]1[C@@H](C/C=C\CCCC(=O)O)[C@@H](O)C[C@H]1O [PGF2α, 9α,11α,15α-trihydroxy-5,13-prostadienoic acid] | 36000 (≈ 102 mM) | – | –
CC(=O)Oc1ccccc1C(=O)O [aspirin, acetylsalicylic acid] | – | 120000 (≈ 666 mM) | chemical potency in the dialkylated glycol vehicle [4]: stabilizes, for extended periods of time, the chemical potency
CCOC(=O)c1ccc(N)cc1 [benzocaine] | – | 111000 (≈ 672 mM) | –
CN(C)C1C(=O)C(C(N)=O)=C(O)C2(O)C(=O)C3=C(O)c4c(O)cccc4C(C)(O)C3C(O)C12 (stereo not drawn) [oxytetracycline hydrochloride] | 340 | – | –
gramicidin | – | – | solubility ([1]; in polyethylene glycol-550-dimethyl ether, 30°C): 4400 µg/mL
